# Reference: ChEMBL document CHEMBL5543174, “A Nonbactericidal Anionic Antimicrobial Peptide Provides Prophylactic and Therapeutic Efficacies against Bacterial Infections in Mice by Immunomodulatory-Antithrombotic Duality” (J Med Chem, 2024)
# The source made the active and inactive calls. The calls are words filed in the database; no cut-off is given here.
# Columns and labels:
# Escherichia coli [1] = assay: Antibacterial activity against Carbapenem-resistant Escherichia coli infected in C57BL/6 mouse assessed as reduction in TNF-alpha level in peritoneal fluid at 10 mg/kg,ip administrated 5 hrs after bacterial infection measured after 24 hrs by ELISA; assay type: functional, organism-based; conditions: time 19.0 hrs
# Escherichia coli [2] = assay: Antimicrobial activity against Escherichia coli ATCC 25922 assessed as reduction in metabolic activity at < 200 ug/ml incubated for 1 to 4 hrs by CCK-8 assay; assay type: functional, organism-based; conditions: dose < 200.0 µg/ml, time 1-4 hrs
# [3] = test system: Peritoneal macrophage cell; assay: Induction of chemotaxis in mouse Peritoneal macrophage assessed as increase in macrophage migration at 100 ug/ml preincubated with PTX for 30 mins followed by compound addition measured after 8 hrs by crystal violet staining based indirect transwell assay; assay type: functional, cell-based; conditions: dose 100.0 µg/ml
# Escherichia coli [4] = assay: Antimicrobial activity against Carbapenem-resistant Escherichia coli assessed as inhibition of microbial growth at <= 200 ug/ml incubated for 18 hrs by micro-broth dilution method; assay type: functional, organism-based; conditions: dose <= 200.0 µg/ml
# Peritoneal macrophage [5] = assay: Immunomodulatory activity in mouse Peritoneal macrophage assessed as decrease in LTA-induced TNF-alpha production at 25 to 100 ug/ml incubated for 6 hrs by ELISA; assay type: functional, cell-based; conditions: dose 25-100 µg/ml
# Nakaseomyces glabratus = assay: Antimicrobial activity against Candida glabrata ATCC 66032 assessed as inhibition of microbial growth at <= 200 ug/ml incubated for 18 hrs by micro-broth dilution method; assay type: functional, organism-based; conditions: dose <= 200.0 µg/ml
# [6] = test system: Peritoneal macrophage cell; assay: Induction of chemotaxis in mouse Peritoneal macrophage assessed as increase in macrophage migration at 100 ug/ml preincubated with WRW4 for 30 mins followed by compound addition measured after 8 hrs by crystal violet staining based indirect transwell assay; assay type: functional, cell-based; conditions: dose 100.0 µg/ml
# Mus musculus [7] = assay: Induction of chemotaxis in C57BL/6 mouse assessed as upregulation of MCP-1 expression in peritoneal lavage at 10 mg/kg,ip administration measured at 5 to 24 hrs by ELISA; assay type: functional, organism-based; conditions: time 5-24 hrs
# Peritoneal macrophage [8] = assay: Induction of chemotaxis in mouse Peritoneal macrophage assessed as upregulation of CXCL2 production at 100 ug/ml preincubated with MTS510 followed by compound addition by ELISA; assay type: functional, cell-based; conditions: dose 100.0 µg/ml
# Mus musculus [9] = assay: Anticoagulation activity in mouse infected with Carbapenem-resistant Escherichia coli assessed as increase in plasma TFPI expression at 10 mg/kg,ip administrated 5 hrs after bacterial infection measured after 24 hrs by ELISA; assay type: functional, organism-based; conditions: time 19.0 hrs
# Peritoneal macrophage [10] = assay: Induction of chemotaxis in mouse Peritoneal macrophage assessed as upregulation of CXCL1 expression incubated for 6 hrs by ELISA; assay type: functional, cell-based
# Staphylococcus aureus [11] = assay: Antimicrobial activity against Staphylococcus aureus ATCC 25923 assessed as inhibition of microbial growth at <= 200 ug/ml incubated for 18 hrs by micro-broth dilution method; assay type: functional, organism-based; conditions: dose <= 200.0 µg/ml
# Escherichia coli [12] = assay: Antibacterial activity against Carbapenem-resistant Escherichia coli infected in C57BL/6 mouse with clodronate liposome-induced monocyte depletion model assessed as decrease in bacterial burden in peritoneal cavity at 10 mg/kg,ip administrated 5 hrs after bacterial infection measured after 24 hrs; assay type: functional, organism-based; conditions: time 19.0 hrs
# Peritoneal macrophage [13] = assay: Immunoregulatory activity in mouse Peritoneal macrophage assessed as change in total ERK expression at 25 to 100 ug/ml incubated for 1 hr by Western blotting analysis; assay type: functional, cell-based; conditions: dose 25-100 µg/ml
# Mus musculus [14] = assay: Anticoagulation activity in mouse infected with Methicillin-resistant Staphylococcus aureus assessed as increase in plasma AT-III expression at 10 mg/kg,ip pre-administrated 5 hrs before bacterial infection measured after 24 hrs by ELISA; assay type: functional, organism-based; conditions: time 29.0 hrs
# Mus musculus [15] = assay: Anticoagulation activity in mouse infected with Carbapenem-resistant Escherichia coli assessed as increase in plasma TFPI expression at 10 mg/kg,ip pre-administrated 5 hrs before bacterial infection measured after 24 hrs by ELISA; assay type: functional, organism-based; conditions: time 29.0 hrs
# Staphylococcus aureus [16] = assay: Antibacterial activity against Staphylococcus aureus ATCC 25923 infected in C57BL/6 mouse assessed as reduction in TNF-alpha level in peritoneal fluid at 10 mg/kg,ip administrated 5 hrs after bacterial infection measured after 24 hrs by ELISA; assay type: functional, organism-based; conditions: time 19.0 hrs
# Mus musculus [17] = assay: Anticoagulation activity in mouse assessed as change in plasma AT-III expression at 10 mg/kg,ip measured after 24 hrs by ELISA; assay type: functional, organism-based
structure (smiles),measurement,setting,value
CC[C@H](C)[C@H](NC(=O)[C@@H]1CSSC[C@H](NC(=O)[C@H](CCC(=O)O)NC(=O)[C@@H](NC(=O)[C@H](CCCCN)NC(=O)[C@H](Cc2c[nH]cn2)NC(=O)[C@@H](NC(=O)[C@H](CCCCN)NC(=O)[C@H](CCC(=O)O)NC(=O)[C@H](C)NC(=O)[C@H](CCC(=O)O)NC(=O)[C@H](CCC(=O)O)NC(=O)[C@H](CCC(=O)O)NC(=O)[C@H](C)N)[C@@H](C)O)[C@@H](C)O)C(=O)N[C@@H](CC(C)C)C(=O)N[C@@H](CCC(=O)O)C(=O)N1)C(=O)N[C@@H](Cc1ccccc1)C(=O)N[C@H](C(=O)N[C@@H](CC(C)C)C(=O)N[C@@H](CC(C)C)C(=O)N1CCC[C@H]1C(=O)N1CCC[C@@H]1C(=O)N[C@H](C)C(=O)O)[C@@H](C)O,Activity,Escherichia coli [1],Active
same,Activity,Escherichia coli [2],inactive
same,Activity,[3],inactive
same,Activity,Escherichia coli [4],inactive
same,Activity,Peritoneal macrophage [5],inactive
same,Activity,Nakaseomyces glabratus,inactive
same,Activity,[6],Active
same,Activity,Mus musculus [7],inactive
same,Activity,Peritoneal macrophage [8],Active
same,Activity,Mus musculus [9],Active
same,Activity,Peritoneal macrophage [10],Dose-Dependent Effect
same,Activity,Staphylococcus aureus [11],inactive
same,Activity,Escherichia coli [12],inactive
same,Activity,Peritoneal macrophage [13],inactive
same,Activity,Mus musculus [14],Active
same,Activity,Mus musculus [15],Active
same,Activity,Staphylococcus aureus [16],Active
same,Activity,Mus musculus [17],inactive
